“And” between values parts separate entries of the source, which are not always exact repeats. Equal entries are not always repeated. Structures can show the parent of a compound that is named as a salt.
Key:
[1] = Acute toxicity in mice (Litchfield-Wilcockson); type: in vivo, white crossbred mice; details: mouse, in vivo
mice [2] = assay: Acute toxicity in mice (Litchfield-Wilcockson); type: in vivo, white crossbred mice; details: i.p., single dose
mice [3] = assay: Rotating rod: myorelaxation and movement coordination; type: in vivo, white crossbred mice; details: same dosage range (0.1 to 150 mg/kg), entire test period 3.5 hours
Protocol: (§1) The myorelaxing effect of the new compounds was tested by the method of the "rotating rod"(Dunham N. W., Miga T. S., A note on a simplex apparatus for detecting neurological deficit in rat and mice, J. Am. Pharm. Ass., 1957, vol. 46, No. 3, pp. 208-209), which allows one to record any abnormalities in coordination and balance, as well as ataxia. The mice in the laboratory tests were placed on a horizontal rod, 2 cm in diameter, rotating at a speed of 5 revolutions per minute. The object was to register the number of mice which were able to maintain equilibrium on the rod for two minutes. Any presence of a myorelaxing component was considered to be a side effect of the substance being studied.

mice [4] = assay: Histotoxic hypoxia (sodium nitroprussiate), lifespan; type: in vivo; details: for Lifespan, % effect: Na-nitro-prussiate alone = 100
Protocol: (§2) The antihypoxic properties of the new compounds were tested in the models of hypoxic normobaric, hemic and histotoxic hypoxia. The hypoxic (hypercapnic) normobaric hypoxia was induced by placing the mice in hermetically sealed transparent boxes, subdivided into compartments, 80 cm^3 each. The animals were observed until all respiratory movements ceased. The hemic hypoxia was induced by the intraperitoneal administration of sodium nitrite in a dose of 400 mg/kg. The hystotoxic hypoxia was induced by the intraperitoneal administration of sodium nitroprussiate, in a dose of a 20 mg/kg dosage.

mice [5] = assay: Hemic hypoxia (sodium nitrite), lifespan; type: in vivo; details: for Lifespan, % effect: Na-nitrite alone = 100
Protocol: as §2

mice [6] = assay: Conditioned reaction of passive avoidance (CPRA), amnesia by electric shock; type: in vivo; details: for Latent period after training: 24 h, amnesia control 31.1; for % effect (latent period): control + amnesia 91.2, w/o amnesia 288.1; for Δt, increase in latent period (t ± m, sec): amnesia control -3 ± 6
Source text: The effect produced by the new substance on the processes of the central nervous system was examined on the model of one-time training of mice, of conditioned reaction of passive avoidance (CPRA), where the amnesic effect was produced by electric shock. During the tests, a two-section chamber was used to condition a certain reflex to the lit and darkened sections. First, for two minutes, the amount of time was registered, that a mouse spent in the lit section before entering the darkened section. Then, while in the darkened section, the animal would receive a single electric shock through the electrode floor (training). The training was immediately followed by an electric shock (50 Hz, 0.2 see). […] The substance was intraperitoneally administered 40 min. prior to the start of the training, the control group received a physiological solution. […] The anti-amnesic properties of the new compound are represented by an increase in the latent period before and after the training. (Δt)

[7] = Solubility and hygroscopicity; type: physicochemical; details: powder
central nervous system = assay: Neuropharmacological screening, overall findings; type: in vivo, mice; details: of all the salts derived
Protocol: as §1

mice [8] = assay: Soporific action of hexobarbital; details: for Duration of sleep, % effect / Lateral position, % effect: hexobarbital alone = 100
mice [9] = assay: Soporific action of barbital sodium; details: for Duration of sleep, % effect / Lateral position, % effect: barbital sodium alone = 100; for increase of sleep duration over control group: barbital sodium
mice [10] = assay: Orientation reflexes: test of ascent onto an inclined net; details: 0.1 to 150 mg/kg
mice [11] = assay: Spontaneous motor activity (SMA), 40-channel automatic motor meter; details: for Average SMA, M ± m: control 632.8 ± 35.2; for Relative change in activity (%): control = 100
[12] = 1 mg/kg i.p. + hexobarbital 100 mg/kg

CC(C)(CO)C(=O)C(=O)NCCCC(=O)O [KPA-Ca, calcium salt of ketopantoyl aminobutyrate]
LD50 ([1]; intravenous, read-out: DL50 (the source's name)): 1040 ± 13.5 mg/kg
MTD ([1]; ip, read-out: maximum tolerance level): 1500 mg/kg
LD10 (acute toxicity) (mice [2]): 2234.3 ± 60.7 mg/kg
ataxia, myorelaxation, loss of movement coordination (mice [3]): did not induce any ataxia, myorelaxation or loss of movement coordination
Average lifespan (mice [4]; 10 mg/kg + Na-nitro-prussiate 20 mg/kg): 798 ± 38 s
Lifespan, % effect (mice [4]; 10 mg/kg): 104.3%
Average lifespan (mice [4]; 25 mg/kg + Na-nitro-prussiate 20 mg/kg): 855 ± 43.2 s
Lifespan, % effect (mice [4]; 25 mg/kg): 111.8%
increase in lifespan (mice [4]; 50 mg/kg): 21.6%
Average lifespan (mice [4]; 50 mg/kg + Na-nitro-prussiate 20 mg/kg, P < 0.05): 930 ± 55.1 s
Lifespan, % effect (mice [4]; 50 mg/kg): 121.6%
increase in lifespan (mice [4]; 100 mg/kg): 38.4%
Average lifespan (mice [4]; 100 mg/kg + Na-nitro-prussiate 20 mg/kg, P < 0.01): 1059 ± 64 s
Lifespan, % effect (mice [4]; 100 mg/kg): 138.4%
Average lifespan (mice [5]; 10 mg/kg + Na-nitrite 400 mg/kg): 777 ± 30.1 s
Lifespan, % effect (mice [5]; 10 mg/kg): 98.3%
Average lifespan (mice [5]; 25 mg/kg + Na-nitrite 400 mg/kg): 780 ± 30.3 s
Lifespan, % effect (mice [5]; 25 mg/kg): 98.7%
Average lifespan (mice [5]; 50 mg/kg + Na-nitrite 400 mg/kg): 819 ± 41 s
Lifespan, % effect (mice [5]; 50 mg/kg): 103.6%
increase in effect (lifespan) (mice [5]; 100 mg/kg): 19.9%
Average lifespan (mice [5]; 100 mg/kg + Na-nitrite 400 mg/kg, P < 0.01): 948 ± 40.3 s
Lifespan, % effect (mice [5]; 100 mg/kg): 119.9%
activity in hemic hypoxia (in words) (mice [5]; 10 to 100 mg/kg): little activity
Latent period before training (mice [6]; 10 mg/kg i.p., 40 min before training): 27.1 s
Latent period after training (mice [6]; 10 mg/kg i.p.): 90.3 s
% effect (latent period) (mice [6]; 10 mg/kg i.p.): 334.4%
Δt, increase in latent period (t ± m, sec) (mice [6]; 10 mg/kg i.p., spread 12.6, P < 0.01): 63.2 s
Latent period before training (mice [6]; 25 mg/kg i.p.): 31.4 s
Latent period after training (mice [6]; 25 mg/kg i.p.): 102.4 s
Δt, increase in latent period (t ± m, sec) (mice [6]; 25 mg/kg i.p., P < 0.001): 71 ± 9 s
% effect (latent period) (mice [6]; 25 mg/kg i.p.): 396.1%
Latent period before training (mice [6]; 50 mg/kg i.p.): 30.6 s
Latent period after training (mice [6]; 50 mg/kg i.p.): 77.8 s
% effect (latent period) (mice [6]; 50 mg/kg i.p.): 254.2%
Δt, increase in latent period (t ± m, sec) (mice [6]; 50 mg/kg i.p., spread 13.3, P < 0.01): 47.2 s
Latent period before training (mice [6]; 100 mg/kg i.p.): 31.8 s
Latent period after training (mice [6]; 100 mg/kg i.p.): 82.8 s
Δt, increase in latent period (t ± m, sec) (mice [6]; 100 mg/kg i.p., P < 0.01): 51 ± 14.1 s
% effect (latent period) (mice [6]; 100 mg/kg i.p.): 260.4%
anti-amnesic effect (in words) (mice [6]; electric shock amnesia): counteracted the amnesic effect of the electric shock
hygroscopicity [7]: hygroscopic
properties compared with the other salts (central nervous system): best properties
Duration of sleep (mice [8]; [12]): 44.6 ± 5.2 min
Lateral position (mice [8]; [12]): 2.5 ± 0.17 min
Duration of sleep, % effect (mice [8]; 1 mg/kg): 96.3%
Lateral position, % effect (mice [8]; 1 mg/kg): 104.2%
Lateral position (mice [8]; 10 mg/kg i.p. + hexobarbital 100 mg/kg): 2.4 ± 0.16 min
Duration of sleep (mice [8]; 10 mg/kg i.p. + hexobarbital 100 mg/kg, P < 0.01): 67.2 ± 4.3 min
Duration of sleep, % effect (mice [8]; 10 mg/kg): 145.1%
Lateral position, % effect (mice [8]; 10 mg/kg): 100%
Lateral position (mice [8]; 25 mg/kg i.p. + hexobarbital 100 mg/kg): 2.5 ± 0.2 min
Duration of sleep (mice [8]; 25 mg/kg i.p. + hexobarbital 100 mg/kg, P < 0.001): 60.6 ± 1.9 min
Duration of sleep, % effect (mice [8]; 25 mg/kg): 130.9%
Lateral position, % effect (mice [8]; 25 mg/kg): 104.2%
Lateral position (mice [8]; 50 mg/kg i.p. + hexobarbital 100 mg/kg): 2.3 ± 0.15 min
Duration of sleep (mice [8]; 50 mg/kg i.p. + hexobarbital 100 mg/kg, P < 0.001): 70.7 ± 3.1 min
increase of sleep duration (mice [8]; 50 mg/kg, hexobarbital): 52.7%
Duration of sleep, % effect (mice [8]; 50 mg/kg): 152.7%
Lateral position, % effect (mice [8]; 50 mg/kg): 95.8%
Lateral position (mice [8]; 100 mg/kg i.p. + hexobarbital 100 mg/kg): 2.4 ± 0.22 min
Duration of sleep (mice [8]; 100 mg/kg i.p. + hexobarbital 100 mg/kg, P < 0.001): 93.7 ± 4.3 min
increase of sleep duration over control group (maximum effect) (mice [8]; 100 mg/kg, hexobarbital): 102.4%
Duration of sleep, % effect (mice [8]; 100 mg/kg): 202.4%
Lateral position, % effect (mice [8]; 100 mg/kg): 100%
Lateral position (mice [8]; 150 mg/kg i.p. + hexobarbital 100 mg/kg): 2.5 ± 0.34 min
Duration of sleep (mice [8]; 150 mg/kg i.p. + hexobarbital 100 mg/kg, P < 0.001): 86.4 ± 4 min
Duration of sleep, % effect (mice [8]; 150 mg/kg): 186.6%
Lateral position, % effect (mice [8]; 150 mg/kg): 104.2%
change in effect on raising the dose (mice [8]; above 100 mg/kg): not noticeable change in the effect
effect on the lateral position (mice [8]; hexobarbital): no effect on the lateral position
Duration of sleep, % effect (mice [9]; 1 mg/kg): 99.9%
Lateral position, % effect (mice [9]; 1 mg/kg): 69.6%
Duration of sleep, % effect (mice [9]; 10 mg/kg): 122.7%
Lateral position, % effect (mice [9]; 10 mg/kg): 61.4%
increase of sleep duration over control group (mice [9]; 25 mg/kg): 126.5%
Duration of sleep, % effect (mice [9]; 25 mg/kg): 226.5%
Lateral position, % effect (mice [9]; 25 mg/kg): 67.3%
increase of sleep duration over control group (mice [9]; 50 mg/kg): 95.1% and 95%
Duration of sleep, % effect (mice [9]; 50 mg/kg): 195.1%
Lateral position, % effect (mice [9]; 50 mg/kg): 68.7%
Duration of sleep, % effect (mice [9]; 100 mg/kg): 229.3%
Lateral position, % effect (mice [9]; 100 mg/kg): 66.7%
increase of sleep duration over control group (mice [9]): 129.3%
effect on exploratory behaviour (mice [10]): does not disturb the "exploratory" behaviour
decrease in number of runs in the motor meter (the same result) (mice [11]; 10 mg/kg): 30%
dose for 30% decrease in runs, compared with pantogam dose (mice [11]; 10 mg/kg KPA-Ca vs 500 mg/kg pantogam): 50 times less
Average SMA, M ± m (mice [11]; 10 mg/kg i.p., 60 min before, number of runs): 482.8 ± 101.8
Relative change in activity (%) (mice [11]; 10 mg/kg i.p.): 76.3%
Average SMA, M ± m (mice [11]; 25 mg/kg i.p., P < 0.01): 369.1 ± 68.7
Relative change in activity (%) (mice [11]; 25 mg/kg i.p.): 58.3%
Average SMA, M ± m (mice [11]; 50 mg/kg i.p., P < 0.01): 338.9 ± 74.5
Relative change in activity (%) (mice [11]; 50 mg/kg i.p.): 53.6%
Average SMA, M ± m (mice [11]; 100 mg/kg i.p., P < 0.01): 270.4 ± 75.3
Relative change in activity (%) (mice [11]; 100 mg/kg i.p.): 42.7%
decrease in motor activity (the same effect) (mice [11]; 150 mg/kg): 70%
Average SMA, M ± m (mice [11]; 150 mg/kg i.p., P < 0.001): 190.6 ± 28.2
Relative change in activity (%) (mice [11]; 150 mg/kg i.p.): 30.1%
dose of greatest effect on motor activity (mice [11]; SMA test, mice): 150 mg/kg
effect on motor activity (in words) (mice [11]; SMA test, mice): decreases the motor activity

Source: patent US5705687A, “Neurotropic drug and method for preparation of same” (priority 1993, dated 1998)
